{"source": "ChEMBL document CHEMBL1201862", "about": "“PubChem BioAssay data set” (2004)", "assay_in_all_cases": "DTP human tumour cell line panel, 48 h", "key": {"[1]": {"system": "SNB-19"}, "[2]": {"system": "IGROV-1"}, "[3]": {"system": "HOP-92"}, "[4]": {"system": "RXF 393"}, "[5]": {"system": "K562"}, "[6]": {"system": "HT-29"}, "[7]": {"system": "UACC-62"}, "[8]": {"system": "M14"}, "[9]": {"system": "OVCAR-8"}, "[10]": {"system": "COLO 205"}, "[11]": {"system": "786-0"}, "[12]": {"system": "HOP-18"}, "[13]": {"system": "HOP-62"}, "[14]": {"system": "LOX IMVI"}, "[15]": {"system": "OVCAR-3"}, "[16]": {"system": "UACC-257"}, "[17]": {"system": "CCRF-CEM"}, "[18]": {"system": "ACHN"}, "[19]": {"system": "Malme-3M"}, "[20]": {"system": "NCI-H226"}, "[21]": {"system": "SK-MEL-5"}, "[22]": {"system": "DMS-273"}, "[23]": {"system": "M19-MEL"}, "[24]": {"system": "SNB-75"}, "[25]": {"system": "HCT-116"}, "[26]": {"system": "HL-60"}, "[27]": {"system": "RXF 631"}, "[28]": {"system": "NCI-H23"}, "[29]": {"system": "SNB-78"}, "[30]": {"system": "SF-268"}, "[31]": {"system": "NCI-H460"}, "[32]": {"system": "SF-539"}, "[33]": {"system": "SN12C"}, "[34]": {"system": "DMS-114"}, "[35]": {"system": "SK-MEL-28"}, "[36]": {"system": "NCI-H522"}, "[37]": {"system": "TK-10"}, "[38]": {"system": "MOLT-4"}, "[39]": {"system": "EKVX"}, "[40]": {"system": "HCC 2998"}, "[41]": {"system": "SK-MEL-2"}, "[42]": {"system": "SK-OV-3"}, "[43]": {"system": "U-251"}, "[44]": {"system": "HCT-15"}, "[45]": {"system": "SW-620"}, "[46]": {"system": "KM12"}, "[47]": {"system": "KM-20L2"}, "[48]": {"system": "OVCAR-4"}, "[49]": {"system": "A549"}, "[50]": {"system": "UO-31"}, "[51]": {"system": "XF498"}, "[52]": {"system": "RPMI-8226"}, "[53]": {"system": "SF-295"}, "[54]": {"system": "A498"}}, "note": "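Exposure lasted 48 hours, with cells grown in 96-well plates and compounds tested at five concentrations. Here, GI50 denotes the concentration required for 50% inhibition of growth.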 Active and inactive are the calls of the source. No stated cut-off is given here; in the data, active = GI50 up to about 1.1 µM and inactive = higher."}
{"smiles": "O=S(=O)(c1ccccc1)N1CCC1c1ccccc1", "note": "(centres undefined)", "values": [{"measurement": "GI50", "setting": "[1]", "result": "> 100 µM (inactive)"}, {"measurement": "GI50", "setting": "[2]", "result": "> 100 µM (inactive)"}, {"measurement": "GI50", "setting": "[3]", "result": "26.1 µM (inactive)"}, {"measurement": "GI50", "setting": "[4]", "result": "> 100 µM (inactive)"}, {"measurement": "GI50", "setting": "[5]", "result": "54.3 µM (inactive)"}, {"measurement": "GI50", "setting": "[6]", "result": "> 100 µM (inactive)"}, {"measurement": "GI50", "setting": "[7]", "result": "77.8 µM (inactive)"}, {"measurement": "GI50", "setting": "[8]", "result": "> 100 µM (inactive)"}, {"measurement": "GI50", "setting": "[9]", "result": "> 100 µM (inactive)"}, {"measurement": "GI50", "setting": "[10]", "result": "> 100 µM (inactive)"}, {"measurement": "GI50", "setting": "[11]", "result": "> 100 µM (inactive)"}, {"measurement": "GI50", "setting": "[12]", "result": "51.5 µM (inactive)"}, {"measurement": "GI50", "setting": "[13]", "result": "> 100 µM (inactive)"}, {"measurement": "GI50", "setting": "[14]", "result": "> 100 µM (inactive)"}, {"measurement": "GI50", "setting": "[15]", "result": "> 100 µM (inactive)"}, {"measurement": "GI50", "setting": "[16]", "result": "63.2 µM (inactive)"}, {"measurement": "GI50", "setting": "[17]", "result": "> 100 µM (inactive)"}, {"measurement": "GI50", "setting": "[18]", "result": "> 100 µM (inactive)"}, {"measurement": "GI50", "setting": "[19]", "result": "> 100 µM (inactive)"}, {"measurement": "GI50", "setting": "[20]", "result": "> 100 µM (inactive)"}, {"measurement": "GI50", "setting": "[21]", "result": "> 100 µM (inactive)"}, {"measurement": "GI50", "setting": "[22]", "result": "> 100 µM (inactive)"}, {"measurement": "GI50", "setting": "[23]", "result": "> 100 µM (inactive)"}, {"measurement": "GI50", "setting": "[24]", "result": "56.4 µM (inactive)"}, {"measurement": "GI50", "setting": "[25]", "result": "87.5 µM (inactive)"}, {"measurement": "GI50", "setting": "[26]", "result": "6.34 µM (inactive)"}, {"measurement": "GI50", "setting": "[27]", "result": "> 100 µM (inactive)"}, {"measurement": "GI50", "setting": "[28]", "result": "> 100 µM (inactive)"}, {"measurement": "GI50", "setting": "[29]", "result": "> 100 µM (inactive)"}, {"measurement": "GI50", "setting": "[30]", "result": "87.1 µM (inactive)"}, {"measurement": "GI50", "setting": "[31]", "result": "> 100 µM (inactive)"}, {"measurement": "GI50", "setting": "[32]", "result": "> 100 µM (inactive)"}, {"measurement": "GI50", "setting": "[33]", "result": "> 100 µM (inactive)"}, {"measurement": "GI50", "setting": "[34]", "result": "50.1 µM (inactive)"}, {"measurement": "GI50", "setting": "[35]", "result": "> 100 µM (inactive)"}, {"measurement": "GI50", "setting": "[36]", "result": "98.9 µM (inactive)"}, {"measurement": "GI50", "setting": "[37]", "result": "> 100 µM (inactive)"}, {"measurement": "GI50", "setting": "[38]", "result": "33.7 µM (inactive)"}, {"measurement": "GI50", "setting": "[39]", "result": "> 100 µM (inactive)"}, {"measurement": "GI50", "setting": "[40]", "result": "> 100 µM (inactive)"}, {"measurement": "GI50", "setting": "[41]", "result": "> 100 µM (inactive)"}, {"measurement": "GI50", "setting": "[42]", "result": "> 100 µM (inactive)"}, {"measurement": "GI50", "setting": "[43]", "result": "> 100 µM (inactive)"}, {"measurement": "GI50", "setting": "[44]", "result": "> 100", "unit": "µM"}, {"measurement": "GI50", "setting": "[45]", "result": "> 100 µM (inactive)"}, {"measurement": "GI50", "setting": "[46]", "result": "> 100 µM (inactive)"}, {"measurement": "GI50", "setting": "[47]", "result": "> 100 µM (inactive)"}, {"measurement": "GI50", "setting": "[48]", "result": "89.5 µM (inactive)"}, {"measurement": "GI50", "setting": "[49]", "result": "> 100 µM (inactive)"}, {"measurement": "GI50", "setting": "[50]", "result": "29.6 µM (inactive)"}, {"measurement": "GI50", "setting": "[51]", "result": "51.9 µM (inactive)"}, {"measurement": "GI50", "setting": "[52]", "result": "43.2 µM (inactive)"}, {"measurement": "GI50", "setting": "[53]", "result": "> 100 µM (inactive)"}, {"measurement": "GI50", "setting": "[54]", "result": "> 100 µM (inactive)"}]}
